From patent US7407979B2, “Bioregulatory active ingredient combination” (BASF Aktiengesellschaft, priority 2001, dated 2008)

Columns and labels:
[1] = system: Winter oilseed rape (cv. Pronto); test: Shoot elongation in winter oilseed rape (Example 1); type: in vivo; settings: treated Oct. 19, 2000; for Stage A1: Reduction / Stage A1: rel. length: rating A1 Oct. 26, 2000; for Stage A2: Reduction / Stage A2: rel. length: rating A2 Nov. 16, 2000
Method: The tank mixes employed in Example 1 are prepared by stirring an emulsion concentrate comprising 90 g/l metconazole, of the formula (II), and an aqueous concentrate comprising 600 g/l mepiquat chloride (MQC) using a magnetic stirrer.
Winter oilseed rape (cv. Pronto) was sown in autumn (Sep. 13, 2000) and treated approximately one month later (Oct. 19, 2000) in accordance with the information given in Table 1. A few weeks later, the shoot elongation and the root development were assessed (A1 on Oct. 26, 2000 and A2 on Nov. 16, 2000).

[2] = system: Winter oilseed rape (cv. Pronto); test: Root growth and morphological parameters in winter oilseed rape (Example 2); type: in vivo; settings: based on untreated control; for SPAD: green coloration
Method: The formulations employed in Example 2 are prepared by introducing an emulsion concentrate comprising 60 g/l metconazole, of the formula (II), and/or an aqueous concentrate comprising 460 g/l mepiquat chloride in suitable amounts. The combination of mepiquat chloride and metconazole is employed in the form of an aqueous SL readymix comprising 21 g/l metconazole, 300 g/l mepiquat chloride and 610 g/l further formulation auxiliaries.
Winter oilseed rape (cv. Pronto) was sown in autumn (Sep. 13, 2000) and treated approximately one month later (Oct. 19, 2000) in accordance with the information given in Table 2. Some of the plants were harvested in autumn on Dec. 07, 2000, while others were harvested in spring on Apr. 03, 2001 and the following morphological parameters were analyzed: plant length; shoot fresh and dry weight (drying: 24 h at 105° C.); total area of all leaves; SPAP (relative units of green coloration determined using a Minolta chlorophyll-measuring meter SPAP 502); root fresh and dry weight (drying: 24 h at 105° C.); storage root fresh weight; length, surface area and volume of the hair roots, and number of root tips (scanning and WinRhizo determination). The results, each of which is based on the untreated control, are compiled in Table 2, the values for the plants harvested in autumn being shown first and the values for the plants harvested in spring being shown second.

[3] = 400 g/ha, autumn harvest Dec. 07, 2000
[4] = 400 g/ha, spring harvest Apr. 03, 2001
[5] = 28 g/ha, autumn harvest Dec. 07, 2000
[6] = 28 g/ha, spring harvest Apr. 03, 2001
[7] = 84 g/ha, autumn harvest Dec. 07, 2000
[8] = 84 g/ha, spring harvest Apr. 03, 2001

C[N+]1(C)CCCCC1.[Cl-] [MQC, N,N-dimethylpiperidinium chloride]
Stage A1: Reduction ([1]; 400 g/ha): 0% | Stage A1: rel. length ([1]; 400 g/ha): 100 | Stage A2: Reduction ([1]; 400 g/ha): 4% | Stage A2: rel. length ([1]; 400 g/ha): 96 | Hair root surface area [2, 3]: 131% | Hair root volume [2, 3]: 154% | Leaf surface area [2, 3]: 116% | Number of root tips [2, 3]: 94% | Plant height [2, 3]: 96% | Root hair length [2, 3]: 112% | Shoot dry weight [2, 3]: 112% | Shoot fresh weight [2, 3]: 111% | Storage root fresh weight [2, 3]: 118% | Total root dry weight [2, 3]: 120% | Total root fresh weight [2, 3]: 123% | SPAD [2, 3]: 102; 102 | Hair root surface area [2, 4]: 136% | Hair root volume [2, 4]: 157% | Leaf surface area [2, 4]: 103% | Number of root tips [2, 4]: 123% | Plant height [2, 4]: 93% | Root hair length [2, 4]: 123% | Shoot dry weight [2, 4]: 99% | Shoot fresh weight [2, 4]: 114% | Storage root fresh weight [2, 4]: 94% | Total root dry weight [2, 4]: 107% | Total root fresh weight [2, 4]: 112% | SPAD [2, 4]: 102; 102

CC1(C)CCC(Cc2ccc(Cl)cc2)C1(O)Cn1cncn1 (centres unmarked) [Metconazole, metconazole]
Stage A1: Reduction ([1]; 21 g/ha): 19% | Stage A1: rel. length ([1]; 21 g/ha): 81 | Stage A2: Reduction ([1]; 21 g/ha): 39% | Stage A2: rel. length ([1]; 21 g/ha): 61 | Hair root surface area [2, 5]: 116% | Hair root volume [2, 5]: 125% | Leaf surface area [2, 5]: 84% | Number of root tips [2, 5]: 93% | Plant height [2, 5]: 61% | Root hair length [2, 5]: 107% | Shoot dry weight [2, 5]: 85% | Shoot fresh weight [2, 5]: 82% | Storage root fresh weight [2, 5]: 94% | Total root dry weight [2, 5]: 94% | Total root fresh weight [2, 5]: 92% | SPAD [2, 5]: 107 | Hair root surface area [2, 6]: 134% | Hair root volume [2, 6]: 145% | Leaf surface area [2, 6]: 106% | Number of root tips [2, 6]: 112% | Plant height [2, 6]: 91% | Root hair length [2, 6]: 126% | Shoot dry weight [2, 6]: 112% | Shoot fresh weight [2, 6]: 122% | Storage root fresh weight [2, 6]: 115% | Total root dry weight [2, 6]: 128% | Total root fresh weight [2, 6]: 115% | SPAD [2, 6]: 103 | Hair root surface area [2, 7]: 97% | Hair root volume [2, 7]: 101% | Leaf surface area [2, 7]: 61% | Number of root tips [2, 7]: 87% | Plant height [2, 7]: 46% | Root hair length [2, 7]: 94% | Shoot dry weight [2, 7]: 67% | Shoot fresh weight [2, 7]: 57% | Storage root fresh weight [2, 7]: 74% | Total root dry weight [2, 7]: 75% | Total root fresh weight [2, 7]: 78% | SPAD [2, 7]: 116 | Hair root surface area [2, 8]: 148% | Hair root volume [2, 8]: 183% | Leaf surface area [2, 8]: 127% | Number of root tips [2, 8]: 116% | Plant height [2, 8]: 86% | Root hair length [2, 8]: 129% | Shoot dry weight [2, 8]: 136% | Shoot fresh weight [2, 8]: 150% | Storage root fresh weight [2, 8]: 138% | Total root dry weight [2, 8]: 161% | Total root fresh weight [2, 8]: 150% | SPAD [2, 8]: 104
